According to patent US20070202502A1, “Assay For Bipolar Affective Disorder” (priority 2004, published 2007):
“Also recorded” adds a separate entry of the source.

Test system: mouse FAT mRNA
Assay: FAT mRNA expression in whole brain of mice treated with lithium or valproate, quantitative real-time PCR
Conditions: C57B16 mice, intraperitoneal once daily for 7 days (lithium 340 mg/kg/day; valproate 350 mg/kg/day)

SMILES: CCCC(CCC)C(=O)O [valproate, 2-propylpentanoic acid]
- effect on relative FAT mRNA expression level (relative to GAPDH mRNA): appear to reduce; also recorded: appears to be reduced
